According to article PMC8894927, “Oxylipin signaling in salt-stressed soybean is modulated by ligand-dependent interaction of Class II acyl-CoA-binding proteins with lipoxygenase” (The Plant Cell, 2021):
“And” between values parts separate entries of the source, which are not always exact repeats. Equal values may be shown once. Each block holds one molecule with its values, some of them ahead of it.

Experiments:
(His)6-GmACBP4.1_33–354 [1] = test: Liposome association assay for PA binding; parameters: species or system soybean; settings: PA:di-16:0-PC liposomes, 0–100% (w/w) PA
(His)6-GmACBP4.1_33–354 [2] = test: Protein–lipid overlay assay; type: binding, soybean; settings: commercial strips and PA-spotted nitrocellulose strips; 0.5 μg mL−1 protein
[3] = system: GmACBP4.1_33–354 interaction with VLXB:StrepII; test: Strep-Tactin pull-down assay with supplemented acyl-CoAs; type: binding, soybean
(His)6-GmACBP4.1_33–354 [4] = test: Isothermal titration calorimetry of acyl-CoA binding (WT protein); parameters: species or system soybean; settings: ITC at 25°C; 15 μM protein titrated with 200 μM acyl-CoA; mean ± SD, three experiments; read-out: KD, dissociation constant
Description: ITC was conducted with a MicroCal iTC200 system (GE Healthcare) at 25°C in 10 mM sodium phosphate (pH 7) by 20 injections of 1.8-μL acyl-CoAs (200 μM; Avanti Polar Lipids Inc., Alabaster, AL, USA) into the sample cell with 15 μM purified (His)6-GmACBP4.1. Each injection lasted 4 s at 150-s intervals with a stirring speed of 1,000 rpm. Nonspecific heat effects were estimated and corrected after saturation. The baseline was adjusted, and the data were fitted into a single-site binding model using the Origin version 7.0 software (OriginLab).
Supplemental Table 1. Binding constants and thermodynamic parameters for (His)6-GmACBP4.133–354 interaction with acyl-CoAs. (Supports Figure 5A) […]
Isothermal titration calorimetry analysis was performed by titration of 250 μL of 15 μM (His)6-GmACBP4.133–354 with […]
from three independent experiments. n, stoichiometry (number of ligand sites per protein); KD, dissociation constant; ∆H, enthalpy change; −T∆S, entropy change; ∆G, Gibbs free energy.

[5] = system: GmACBP4.1_33–354 interaction with GmPLDα1:StrepII; test: Strep-Tactin pull-down assay with supplemented acyl-CoAs; type: binding, soybean; settings: acyl-CoA 12.5–100 μM, versus control without acyl-CoA
Description: Figure 6 Specific acyl-CoA species facilitate GmACBP4 interaction with VLXB and GmPLDα1. A, Strep-Tactin pull-down assays. […] (His)6-GmACBP4.1_33–354 were detected in eluates by immunoblotting using anti-ACBP3 antibodies. […] Input lanes represent 1% protein. Arrowheads indicate target bands of 40-kD (His)6-GmACBP4.1_33–354 (apparent: 50 kD). The bound protein fraction was quantified densitometrically. […] B–C, Strep-Tactin pull-down assays with supplemented acyl-CoAs. […] Input lanes represent 5% proteins in (B) or 10% proteins in (C). Arrowheads indicate target bands of 40-kD (His)6-GmACBP4.1_33–354 (apparent: 50kD).
Strep-Tactin pull-down assays were performed using Strep-Tactin XT resins (IBA) following the manufacturer’s instructions. Briefly, 5 μL of resins with/without prebound VLXB:StrepII or GmPLDα1:StrepII (0.5 μM) were agitated with GmACBP4.1_33–354 (0.5 μM) and acyl-CoAs (0, 12.5, 25, 50, and 100 μM) in Buffer W containing 0.1 M Tris–HCl (pH 7), 0.15 M NaCl, 1 mM EDTA and 0.05% (w/v) Triton X-100 at 4°C for 2 h. After three washes in Buffer W, bound proteins were eluted in Buffer W with 50 mM biotin, and analyzed by immunoblotting using anti-ACBP3.1 antibodies.

AtACBP1 = target: AtACBP1; parameters: method as in Xue et al., 2014; settings: ref Xue et al., 2014; cited from earlier work
VLXB:StrepII [6] = target: T1, VLXB:StrepII (soybean, UniProt A0A0R0G554 1-853); test: pull-down; Strep-Tactin XT resins with prebound VLXB:StrepII or GmPLDα1:StrepII (0.5 μM) agitated with (His)6-GmACBP4.1(33-354) (0.5 μM) and acyl-CoAs (0, 12.5, 25, 50, 100 μM) in 0.1 M Tris-HCl pH 7, 0.15 M NaCl, 1 mM EDTA, 0.05% Triton X-100 at 4°C for 2 h; eluted with 50 mM biotin; immunoblot with anti-ACBP3.1 antibodies; settings: both partners purified
T1 construct: VLXB, soybean vegetative type-1 lipoxygenase homolog (Glyma.15G026500), ORF; In pRSETA (pGM1027); the methods call these proteins (His)6/StrepII-tagged; also called recombinant VLXB:StrepII; source: E. coli, purified (HisTrap HP, Strep-Tactin XT); not shown: StrepII, C-terminal, kept
T1 sequence (looked up): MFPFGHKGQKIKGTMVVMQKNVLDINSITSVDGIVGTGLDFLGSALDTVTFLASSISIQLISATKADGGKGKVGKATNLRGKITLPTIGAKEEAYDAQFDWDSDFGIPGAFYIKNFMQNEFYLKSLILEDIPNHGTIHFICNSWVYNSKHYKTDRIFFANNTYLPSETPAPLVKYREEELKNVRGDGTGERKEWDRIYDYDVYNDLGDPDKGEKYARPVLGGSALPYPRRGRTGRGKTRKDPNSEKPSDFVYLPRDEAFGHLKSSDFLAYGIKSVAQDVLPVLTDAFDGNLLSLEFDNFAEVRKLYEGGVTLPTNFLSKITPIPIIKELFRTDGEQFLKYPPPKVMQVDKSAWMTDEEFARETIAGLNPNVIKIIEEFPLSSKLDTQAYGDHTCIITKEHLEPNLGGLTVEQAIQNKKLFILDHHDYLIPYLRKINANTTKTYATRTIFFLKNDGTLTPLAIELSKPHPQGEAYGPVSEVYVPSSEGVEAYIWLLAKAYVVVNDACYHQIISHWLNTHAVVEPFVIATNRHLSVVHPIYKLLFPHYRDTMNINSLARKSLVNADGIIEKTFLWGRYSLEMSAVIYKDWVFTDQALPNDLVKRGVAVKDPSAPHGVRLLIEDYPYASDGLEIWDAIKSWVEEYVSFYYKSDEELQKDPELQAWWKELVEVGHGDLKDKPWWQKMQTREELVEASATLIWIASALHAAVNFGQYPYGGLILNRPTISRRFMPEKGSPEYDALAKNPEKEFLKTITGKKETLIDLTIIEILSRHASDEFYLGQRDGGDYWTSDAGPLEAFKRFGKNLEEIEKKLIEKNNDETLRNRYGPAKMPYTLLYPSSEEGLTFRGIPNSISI

GmPLDα1:StrepII = target: T2, GmPLDα1:StrepII (soybean, UniProt I1KH24 1-809); test: as above; settings: both partners purified
T2 construct: GmPLDα1, soybean phospholipase Dα1 (Glyma.07G031100), ORF; In pRSETA (pGM1032); the methods call these proteins (His)6/StrepII-tagged; also called soybean PHOSPHOLIPASE Dα1; source: E. coli, purified (HisTrap HP, Strep-Tactin XT); not shown: StrepII, C-terminal, kept
T2 sequence (looked up): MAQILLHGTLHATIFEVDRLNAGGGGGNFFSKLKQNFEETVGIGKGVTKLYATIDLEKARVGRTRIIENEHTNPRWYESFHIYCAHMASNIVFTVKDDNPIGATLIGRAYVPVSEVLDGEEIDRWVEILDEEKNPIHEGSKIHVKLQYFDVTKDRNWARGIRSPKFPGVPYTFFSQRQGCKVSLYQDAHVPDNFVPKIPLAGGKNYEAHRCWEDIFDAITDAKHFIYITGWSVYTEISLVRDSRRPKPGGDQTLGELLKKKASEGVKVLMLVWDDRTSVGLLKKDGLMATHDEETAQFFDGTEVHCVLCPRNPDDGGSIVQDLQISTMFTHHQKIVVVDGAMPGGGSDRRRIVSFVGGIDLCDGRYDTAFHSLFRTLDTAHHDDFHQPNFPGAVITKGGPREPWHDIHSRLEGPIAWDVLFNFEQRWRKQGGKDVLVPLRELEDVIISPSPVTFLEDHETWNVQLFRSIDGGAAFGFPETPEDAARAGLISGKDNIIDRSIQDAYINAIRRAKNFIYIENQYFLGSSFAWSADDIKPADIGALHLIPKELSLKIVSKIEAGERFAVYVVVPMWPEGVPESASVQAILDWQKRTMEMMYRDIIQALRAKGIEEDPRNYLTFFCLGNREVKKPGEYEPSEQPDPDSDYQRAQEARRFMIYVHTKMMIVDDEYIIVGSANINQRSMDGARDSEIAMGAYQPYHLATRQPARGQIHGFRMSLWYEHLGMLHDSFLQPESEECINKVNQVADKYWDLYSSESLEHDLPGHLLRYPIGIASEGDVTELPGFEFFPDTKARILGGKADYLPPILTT

VLXB:StrepII [7] = target: T1, VLXB:StrepII; test: cell-based or functional assay
[8] = acyl-CoA 12.5–100 μM, versus control without acyl-CoA

binding on lipid filter strips ((His)6-GmACBP4.1_33–354 [2]): lower affinity
Molecule: CCCCCCCCCCCCCC(=O)OC[C@H](COP(=O)(O)O)OC(=O)CCCCCCCCCCCCC [di-14:0-PA]
descending order of affinity to the WT (liposome association) ((His)6-GmACBP4.1_33–354 [1]): di-16:0-PA ≈ di-18:1-PA > di-18:0-PA > di-14:0-PA

binding on lipid filter strips ((His)6-GmACBP4.1_33–354 [2]): lower affinity
Molecule: CCCCCCCCCCCCCCCCCC(=O)OC[C@H](COP(=O)(O)O)OC(=O)CCCCCCCCCCCCCCCCC [di-18:0-PA]
descending order of affinity to the WT (liposome association) ((His)6-GmACBP4.1_33–354 [1]): di-16:0-PA ≈ di-18:1-PA > di-18:0-PA > di-14:0-PA

increase in WT binding with VLXB:StrepII ([3]; 100 µM acyl-CoA): nine-fold | Kd ((His)6-GmACBP4.1_33–354 [4]): 1170 nM and 900 to 1200 nM | increase in WT binding with GmPLDα1:StrepII [5]: did not influence
Molecule: CC/C=C\C/C=C\C/C=C\CCCCCCCC(=O)SCCNC(=O)CCNC(=O)[C@H](O)C(C)(C)COP(=O)(O)OP(=O)(O)OC[C@H]1O[C@@H](n2cnc3c(N)ncnc32)[C@H](O)[C@@H]1OP(=O)(O)O [C18:3-CoA, linolenoyl-CoA]
Kd (AtACBP1): 400 to 800 nM

fold increase of binding with 100 µM C18:3-CoA against no acyl-CoA (VLXB:StrepII [6]): 9 fold | fold increase of binding with C18:2-CoA against no acyl-CoA (VLXB:StrepII [6]): ≤ 4 fold | fold increase of binding with C16:0/C18:1-CoAs against no acyl-CoA (GmPLDα1:StrepII): ≤ 9 fold | IC50 of in vitro LOX activity of 100 nM VLXB:StrepII after incubation with 0.1-300 nM (His)6-GmACBP4.1(33-354) WT and 10 µM C18:2-CoA (VLXB:StrepII [7]): 8.5 nM | IC50 of in vitro LOX activity of 100 nM VLXB:StrepII after incubation with 0.1-300 nM (His)6-GmACBP4.1(33-354) WT and 10 µM C18:3-CoA (VLXB:StrepII [7]): 5 nM
B1: (His)6-GmACBP4.1_(33–354) (domain or fragment, UniProt I1KAV2 33-354, looked up)
chain: DDNLTVTRASAAETTATRAEQFEDALKRDDAVSSDARPFEEESVVAEHGSVRIDSDGDYDDDWEGVESTELDEAFSAATAFVAAAAADRLSQKVSSDVQLQLYGLYKIATEGPCSTPQPSPLKMTARAKWQAWQKLGAMPPEDAMQKYIDIVTEIYPTWLDGSSLRNKSGDSGGHGSEAKGPMGPVFSTFVYEEEYGSDSQMEAIHGFAREGDMANLLKCIENGVSMNLKDSEGRTPLHWAVDRGHLNVTELLVGKNADVNAKDNDGQTPLHYAVTCEREAIAEYLVKHNADIYSKDNDGSSPRDICESNWPCMQHVGEEVN
notes: In pRSETA (pGM963); also called WT; recombinant GmACBP4.1 without the TM domain; source: E. coli, purified (HisTrap HP, HiTrap Q HP); not shown: (His)6, N-terminal, kept

Further lines, the molecule ahead of its results:

Molecule: CCCCCCCCC=CCCCCCCCC(=O)OCC(COP(=O)(O)O)OC(=O)CCCCCCCC=CCCCCCCCC (stereo not drawn) [di-18:1-PA]
descending order of affinity to the WT (liposome association) ((His)6-GmACBP4.1_33–354 [1]): di-16:0-PA ≈ di-18:1-PA > di-18:0-PA > di-14:0-PA

Molecule: CCCCCCCCCCCCCCCC(=O)SCCNC(=O)CCNC(=O)[C@H](O)C(C)(C)COP(=O)(O)OP(=O)(O)OC[C@H]1O[C@@H](n2cnc3c(N)ncnc32)[C@H](O)[C@@H]1OP(=O)(O)O [C16:0-CoA]
increase in WT binding with VLXB:StrepII [3, 8]: negligible | Kd ((His)6-GmACBP4.1_33–354 [4]): 800 ± 100 nM | increase in WT binding with GmPLDα1:StrepII [5]: up to nine-fold

Molecule: CCCCCCCCCCCCCCCC(=O)OC[C@H](COP(=O)([O-])OCC[N+](C)(C)C)OC(=O)CCCCCCCCCCCCCCC [di-16:0-phosphatidylcholine]
binding on lipid filter strips ((His)6-GmACBP4.1_33–354 [2]): did not interact

Molecule: CCCCCCCC/C=C\CCCCCCCC(=O)SCCNC(=O)CCNC(=O)[C@H](O)C(C)(C)COP(=O)(O)OP(=O)(O)OC[C@H]1O[C@@H](n2cnc3c(N)ncnc32)[C@H](O)[C@@H]1OP(=O)(O)O [C18:1-CoA]
increase in WT binding with VLXB:StrepII [3, 8]: negligible | Kd ((His)6-GmACBP4.1_33–354 [4]): 680 ± 80 nM | increase in WT binding with GmPLDα1:StrepII [5]: up to nine-fold
